Results published in the NIST ThermoML archive (doi:10.1021/acs.jced.7b00773).

Conditions: Liquid; for viscosity: Concentric cylinders viscometry

CCCC[N+]1(C)CCCC1.O=S(=O)([N-]S(=O)(=O)C(F)(F)F)C(F)(F)F
100 kPa
Conditions | viscosity [mPa·s]
293.15 K | 98.53
303.15 K | 61.87
313.15 K | 41.45
323.15 K | 29.25
333.15 K | 21.53
343.15 K | 16.4
353.15 K | 12.86
363.15 K | 10.33
373.15 K | 8.471

Conditions | mass density [kg/m3]
293.15 K, 100 kPa, Vibrating tube method | 1398.7
303.15 K, 100 kPa, Vibrating tube method | 1389.8
311.6 K, 10000 kPa, Bellows volumetry | 1389.1
311.6 K, 20000 kPa, Bellows volumetry | 1396.1
311.6 K, 30000 kPa, Bellows volumetry | 1402.6
311.6 K, 40000 kPa, Bellows volumetry | 1408.7
311.6 K, 50000 kPa, Bellows volumetry | 1414.5
311.6 K, 60000 kPa, Bellows volumetry | 1420.1
311.6 K, 70000 kPa, Bellows volumetry | 1425.5
311.6 K, 80000 kPa, Bellows volumetry | 1430.7
311.6 K, 90000 kPa, Bellows volumetry | 1435.5
311.6 K, 100000 kPa, Bellows volumetry | 1440.4
311.6 K, 110000 kPa, Bellows volumetry | 1445.5
311.6 K, 120000 kPa, Bellows volumetry | 1449.8
311.6 K, 130000 kPa, Bellows volumetry | 1454.3
311.6 K, 140000 kPa, Bellows volumetry | 1458.6
311.6 K, 150000 kPa, Bellows volumetry | 1462.9
311.6 K, 160000 kPa, Bellows volumetry | 1467.2
311.6 K, 170000 kPa, Bellows volumetry | 1471.2
311.6 K, 180000 kPa, Bellows volumetry | 1475.1
311.6 K, 190000 kPa, Bellows volumetry | 1479
311.6 K, 200000 kPa, Bellows volumetry | 1483
313.15 K, 100 kPa, Vibrating tube method | 1381
323.15 K, 100 kPa, Vibrating tube method | 1372.4
331.5 K, 10000 kPa, Bellows volumetry | 1372.4
331.5 K, 20000 kPa, Bellows volumetry | 1379.6
331.5 K, 30000 kPa, Bellows volumetry | 1386.5
331.5 K, 40000 kPa, Bellows volumetry | 1393
331.5 K, 50000 kPa, Bellows volumetry | 1399.1
331.5 K, 60000 kPa, Bellows volumetry | 1405
331.5 K, 70000 kPa, Bellows volumetry | 1410.6
331.5 K, 80000 kPa, Bellows volumetry | 1416
331.5 K, 90000 kPa, Bellows volumetry | 1421.3
331.5 K, 100000 kPa, Bellows volumetry | 1426.6
331.5 K, 110000 kPa, Bellows volumetry | 1431.4
331.5 K, 120000 kPa, Bellows volumetry | 1436
331.5 K, 130000 kPa, Bellows volumetry | 1440.6
331.5 K, 140000 kPa, Bellows volumetry | 1445.1
331.5 K, 150000 kPa, Bellows volumetry | 1449.5
331.5 K, 160000 kPa, Bellows volumetry | 1454
331.5 K, 170000 kPa, Bellows volumetry | 1458.1
331.5 K, 180000 kPa, Bellows volumetry | 1462.1
331.5 K, 190000 kPa, Bellows volumetry | 1466.1
331.5 K, 200000 kPa, Bellows volumetry | 1470.2
333.15 K, 100 kPa, Vibrating tube method | 1363.9
343.15 K, 100 kPa, Vibrating tube method | 1355.5
351.6 K, 10000 kPa, Bellows volumetry | 1355.8
351.6 K, 20000 kPa, Bellows volumetry | 1363.3
351.6 K, 30000 kPa, Bellows volumetry | 1370.6
351.6 K, 40000 kPa, Bellows volumetry | 1377.4
351.6 K, 50000 kPa, Bellows volumetry | 1383.9
351.6 K, 60000 kPa, Bellows volumetry | 1390
351.6 K, 70000 kPa, Bellows volumetry | 1395.9
351.6 K, 80000 kPa, Bellows volumetry | 1401.7
351.6 K, 90000 kPa, Bellows volumetry | 1407.4
351.6 K, 100000 kPa, Bellows volumetry | 1412.4
351.6 K, 110000 kPa, Bellows volumetry | 1417.5
351.6 K, 120000 kPa, Bellows volumetry | 1422.3
351.6 K, 130000 kPa, Bellows volumetry | 1427.1
351.6 K, 140000 kPa, Bellows volumetry | 1431.7
351.6 K, 150000 kPa, Bellows volumetry | 1436.5
351.6 K, 160000 kPa, Bellows volumetry | 1440.8
351.6 K, 170000 kPa, Bellows volumetry | 1445.1
351.6 K, 180000 kPa, Bellows volumetry | 1449.2
351.6 K, 190000 kPa, Bellows volumetry | 1453.3
351.6 K, 200000 kPa, Bellows volumetry | 1457.4
353.15 K, 100 kPa, Vibrating tube method | 1347.1
363.15 K, 100 kPa, Vibrating tube method | 1338.7
371.6 K, 10000 kPa, Bellows volumetry | 1339.4
371.6 K, 20000 kPa, Bellows volumetry | 1347.4
371.6 K, 30000 kPa, Bellows volumetry | 1355.3
371.6 K, 40000 kPa, Bellows volumetry | 1362.4
371.6 K, 50000 kPa, Bellows volumetry | 1369.3
371.6 K, 60000 kPa, Bellows volumetry | 1375.8
371.6 K, 70000 kPa, Bellows volumetry | 1382
371.6 K, 80000 kPa, Bellows volumetry | 1387.9
371.6 K, 90000 kPa, Bellows volumetry | 1393.8
371.6 K, 100000 kPa, Bellows volumetry | 1399
371.6 K, 110000 kPa, Bellows volumetry | 1404.3
371.6 K, 120000 kPa, Bellows volumetry | 1409.6
371.6 K, 130000 kPa, Bellows volumetry | 1414.5
371.6 K, 140000 kPa, Bellows volumetry | 1419.3
371.6 K, 150000 kPa, Bellows volumetry | 1424
371.6 K, 160000 kPa, Bellows volumetry | 1428.4
371.6 K, 170000 kPa, Bellows volumetry | 1433
371.6 K, 180000 kPa, Bellows volumetry | 1437.4
371.6 K, 190000 kPa, Bellows volumetry | 1441.6
371.6 K, 200000 kPa, Bellows volumetry | 1445.7
373.15 K, 100 kPa, Vibrating tube method | 1329.8
391.6 K, 10000 kPa, Bellows volumetry | 1323.3
391.6 K, 20000 kPa, Bellows volumetry | 1331.9
391.6 K, 30000 kPa, Bellows volumetry | 1340.1
391.6 K, 40000 kPa, Bellows volumetry | 1347.7
391.6 K, 50000 kPa, Bellows volumetry | 1354.8
391.6 K, 60000 kPa, Bellows volumetry | 1361.5
391.6 K, 70000 kPa, Bellows volumetry | 1368.2
391.6 K, 80000 kPa, Bellows volumetry | 1374.3
391.6 K, 90000 kPa, Bellows volumetry | 1380.3
391.6 K, 100000 kPa, Bellows volumetry | 1385.9
391.6 K, 110000 kPa, Bellows volumetry | 1391.3
391.6 K, 120000 kPa, Bellows volumetry | 1396.9
391.6 K, 130000 kPa, Bellows volumetry | 1401.9
391.6 K, 140000 kPa, Bellows volumetry | 1406.8
391.6 K, 150000 kPa, Bellows volumetry | 1411.5
391.6 K, 160000 kPa, Bellows volumetry | 1416.3
391.6 K, 170000 kPa, Bellows volumetry | 1420.8
391.6 K, 180000 kPa, Bellows volumetry | 1425.3
391.6 K, 190000 kPa, Bellows volumetry | 1429.7
391.6 K, 200000 kPa, Bellows volumetry | 1434
411.3 K, 10000 kPa, Bellows volumetry | 1307.4
411.3 K, 20000 kPa, Bellows volumetry | 1316.7
411.3 K, 30000 kPa, Bellows volumetry | 1325.3
411.3 K, 40000 kPa, Bellows volumetry | 1333.4
411.3 K, 50000 kPa, Bellows volumetry | 1341
411.3 K, 60000 kPa, Bellows volumetry | 1348
411.3 K, 70000 kPa, Bellows volumetry | 1354.7
411.3 K, 80000 kPa, Bellows volumetry | 1361.2
411.3 K, 90000 kPa, Bellows volumetry | 1367.3
411.3 K, 100000 kPa, Bellows volumetry | 1373.4
411.3 K, 110000 kPa, Bellows volumetry | 1379
411.3 K, 120000 kPa, Bellows volumetry | 1384.4
411.3 K, 130000 kPa, Bellows volumetry | 1389.7
411.3 K, 140000 kPa, Bellows volumetry | 1394.9
411.3 K, 150000 kPa, Bellows volumetry | 1400
411.3 K, 160000 kPa, Bellows volumetry | 1404.8
411.3 K, 170000 kPa, Bellows volumetry | 1409.4
411.3 K, 180000 kPa, Bellows volumetry | 1414.1
411.3 K, 190000 kPa, Bellows volumetry | 1418.5
411.3 K, 200000 kPa, Bellows volumetry | 1422.8
